Measurements taken from the NIST ThermoML archive (doi:10.1021/je700339f).
± gives the expanded uncertainty stated by the source.

Assay: xn = mol fraction of the nth substance listed
Conditions: 298 K, Liquid

ClCCCCCCCl [1,6-dichlorohexane] + CN(C)C=O
mass density [kg/m3]
Conditions	x2 = 0.0986	x2 = 0.2013	x2 = 0.3197	x2 = 0.4014	x2 = 0.5033	x2 = 0.6037	x2 = 0.7034	x2 = 0.8019	x2 = 0.9008
100 kPa	1056.4 ± 2.7	1048.6 ± 2.8	1038.2 ± 2.8	1030.1 ± 3	1019 ± 3.1	1007.3 ± 3.2	994.3 ± 3.4	980 ± 3.7	963.6 ± 3.9
500 kPa	1056.6 ± 2.7	1048.8 ± 2.8	1038.4 ± 2.8	1030.3 ± 3	1019.3 ± 3.1	1007.6 ± 3.2	994.6 ± 3.4	980.3 ± 3.7	963.9 ± 3.9
1000 kPa	–	1049.2 ± 2.8	1038.8 ± 2.8	1030.7 ± 3	1019.6 ± 3.1	1007.9 ± 3.2	995 ± 3.4	980.6 ± 3.7	964.2 ± 3.9
1100 kPa	1057.1 ± 2.7	–	–	–	–	–	–	–	–
1500 kPa	1057.3 ± 2.7	1049.6 ± 2.8	1039.2 ± 2.8	1031.1 ± 3	1020 ± 3.1	1008.2 ± 3.2	995.3 ± 3.4	980.9 ± 3.7	964.5 ± 3.9
2000 kPa	1057.7 ± 2.7	1049.9 ± 2.8	1039.5 ± 2.8	1031.4 ± 3	1020.3 ± 3.1	1008.6 ± 3.2	995.6 ± 3.4	981.3 ± 3.7	964.8 ± 3.9
2500 kPa	1058 ± 2.7	1050.2 ± 2.8	1039.8 ± 2.8	1031.7 ± 3	1020.7 ± 3.1	1008.9 ± 3.2	995.9 ± 3.4	981.6 ± 3.7	965.1 ± 3.9
2900 kPa	–	–	–	–	1021 ± 3.1	–	–	–	–
3000 kPa	1058.4 ± 2.7	1050.6 ± 2.8	1040.2 ± 2.8	1032.1 ± 3	–	1009.2 ± 3.2	996.3 ± 3.4	981.9 ± 3.7	965.4 ± 3.9
3500 kPa	1058.7 ± 2.7	1050.9 ± 2.8	1040.5 ± 2.8	1032.4 ± 3	1021.3 ± 3.1	1009.6 ± 3.2	996.6 ± 3.4	982.2 ± 3.7	965.8 ± 3.9
4000 kPa	1059.1 ± 2.7	1051.3 ± 2.8	1040.8 ± 2.8	1032.8 ± 3	1021.7 ± 3.1	1009.9 ± 3.2	996.9 ± 3.4	982.6 ± 3.7	966.1 ± 3.9
4500 kPa	1059.4 ± 2.7	1051.6 ± 2.8	1041.2 ± 2.8	1033.2 ± 3	1022 ± 3.1	1010.2 ± 3.2	997.2 ± 3.4	982.9 ± 3.7	966.4 ± 3.9
4900 kPa	–	–	–	–	–	–	–	983.2 ± 3.7	–
5000 kPa	1059.8 ± 2.7	1052 ± 2.8	1041.5 ± 2.9	1033.4 ± 3	1022.3 ± 3.1	1010.5 ± 3.2	997.5 ± 3.4	–	966.7 ± 2.8
5500 kPa	1060.1 ± 2.7	1052.3 ± 2.8	1041.8 ± 2.9	1033.8 ± 3	1022.6 ± 3.1	1010.9 ± 3.2	997.8 ± 3.4	983.5 ± 3.7	967 ± 3.9
5900 kPa	–	–	–	–	–	1011.2 ± 3.2	–	–	–
6000 kPa	1060.4 ± 2.8	1052.6 ± 2.8	1042.2 ± 2.8	1034.2 ± 3	1023 ± 3.1	–	998.2 ± 3.4	983.9 ± 3.7	967.3 ± 3.9
6400 kPa	–	–	–	–	–	–	–	984.2 ± 3.7	–
6500 kPa	1060.8 ± 2.8	1053 ± 2.8	1042.6 ± 2.9	1034.5 ± 3	1023.3 ± 3.1	1011.5 ± 3.2	998.5 ± 3.4	–	967.7 ± 3.9
6900 kPa	–	–	–	1034.8 ± 3	–	–	–	–	967.8 ± 3.9
7000 kPa	1061.1 ± 2.8	1053.3 ± 2.8	1042.9 ± 2.9	–	1023.7 ± 3.1	1011.9 ± 3.2	998.8 ± 3.4	984.5 ± 3.7	–
7400 kPa	–	–	–	1035.1 ± 3	–	–	–	–	–
7500 kPa	1061.5 ± 2.8	1053.7 ± 2.8	1043.2 ± 2.9	–	1024 ± 3.1	1012.2 ± 3.2	999.1 ± 3.4	984.8 ± 3.7	968.2 ± 3.9
7900 kPa	1061.8 ± 2.8	–	–	–	–	–	–	–	–
8000 kPa	–	1054 ± 2.8	1043.5 ± 2.9	1035.5 ± 3	1024.4 ± 3.1	1012.6 ± 3.2	999.5 ± 3.5	985.1 ± 3.8	968.5 ± 3.9
8400 kPa	–	–	–	–	–	1012.8 ± 3.2	–	985.4 ± 3.7	968.8 ± 3.9
8500 kPa	1062.2 ± 2.8	1054.4 ± 2.8	1043.8 ± 2.9	1035.8 ± 3	1024.6 ± 3.1	–	999.8 ± 3.4	–	–
8900 kPa	–	–	–	–	–	1013.1 ± 3.2	–	–	–
9000 kPa	1062.5 ± 2.8	1054.7 ± 2.8	1044.2 ± 2.9	1036.1 ± 3	1025 ± 3.1	–	1000.1 ± 3.4	985.8 ± 3.8	969.1 ± 4
9400 kPa	–	–	–	–	–	–	–	–	969.4 ± 3.9
9500 kPa	1062.8 ± 2.8	1055.1 ± 2.8	1044.5 ± 2.9	1036.5 ± 3	1025.3 ± 3.1	1013.5 ± 3.2	1000.4 ± 3.4	986.1 ± 3.7	–
10000 kPa	1063.1 ± 2.8	1055.5 ± 2.8	1044.9 ± 2.9	1036.9 ± 3	–	–	–	–	–
